In one experiment the target is T1, adenosine A1 receptor (Rattus norvegicus, UniProt P25099).
T1 construct: Whole brain minus cerebellum and brainstem from male Long Evans rats; from tissue; host or cells: rat whole brain minus cerebellum and brainstem (male Long Evans), membranes
T1 sequence (P25099 1-326): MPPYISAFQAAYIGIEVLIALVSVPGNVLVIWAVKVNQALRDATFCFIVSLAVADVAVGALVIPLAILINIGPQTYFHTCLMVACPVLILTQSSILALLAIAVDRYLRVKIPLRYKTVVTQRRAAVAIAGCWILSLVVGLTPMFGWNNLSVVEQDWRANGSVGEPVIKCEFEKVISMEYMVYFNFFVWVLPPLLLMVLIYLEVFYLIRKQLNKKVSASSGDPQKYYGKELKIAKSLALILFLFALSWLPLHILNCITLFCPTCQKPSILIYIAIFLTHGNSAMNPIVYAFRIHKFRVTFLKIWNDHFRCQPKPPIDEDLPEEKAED
The experiment is described as follows: Adenosine Receptor Binding--A1 Receptor Affinity (RBA1), [3H]-CHA binding, rat whole brain membranes. Set-up: species or system rat (male Long Evans). The settings on record: 1.0 nM [3H]-CHA, 25° C., 1 h. As to the method: Adenosine Receptor Binding--A1 Receptor Affinity (RBA1)
Whole brain minus cerebellum and brainstem from male Long Evans rats (150-200 g) was homogenized in 30 volumes of ice-cold 0.05M Tris-HCl buffer pH 7.7 using a Brinkman Polytron PT-10, (setting number 6 for 20 seconds) and centrifuged for ten minutes at 20,000×g (Sorvall RC-2), 4° C. The supernatant was discarded, and the pellet was resuspended and centrifuged as before. The pellet was resuspended in 20 ml Tris-HCl buffer containing two International Units/ml of adenosine deaminase (Sigma type III from calf intestinal mucosa), incubated at 37° C. for 30 minutes, then subsequently at 0° C. for ten minutes. The homogenate was again centrifuged, and the final pellet was resuspended in ice-cold 0.05M Tris-HCl buffer pH 7.7 to a concentration of 20 mg/ml original wet tissue weight and used immediately.
Tissue homogenate (10 mg/ml) was incubated in 0.05M Tris-HCl buffer pH 7.7 containing 1.0 nM [^3 H]-N^6 -cyclohexyladenosine[^3 H]-CHA) with or without test agents in triplicate for one hour at 25° C. Incubation volume was 2 ml. Unbound [^3 H]-CHA was separated by rapid filtration under reduced pressure through Whatman glass fiber (GF/B) filters. The filters were rinsed three times with 5 ml of ice cold 0.05M Tris-HCl buffer pH 7.7. The radio-labeled ligand retained on the filter was measured by liquid scintillation spectrophotometry after shaking the filters for one hour or longer on a mechanical shaker in 10 ml of Beckman Ready-Solv HP scintillation cocktail.
Nonspecific binding was defined as the binding which occurred in the presence of 1 mM theophylline. The concentration of test agent which inhibited 50% of the specific binding (IC50) was determined by nonlinear computer curve fit. The Scatchard plot was calculated by linear regression of the line obtained by plotting the amount of radioligand bound (pmoles/gram of tissue) [formula] Since the amount of radioligand bound was a small fraction of the total amount added, free radioligand was defined as the concentration (nM) of radioligand added to the incubation mixture. The Hill coefficient was calculated by linear regression of the line obtained by plotting the log of the bound radioligand vs the log of the [formula] The maximal number of binding sites (Bmax) was calculated from the Scatchard plot.

The target in another experiment is T2, adenosine A2 receptor (Rattus norvegicus, UniProt P30543).
T2 construct: 5 mg original tissue weight of rat weight of rat striatal membranes; tissue Pel-Freez (Rogers, Ark.) for the brains; host or cells: rat striatum (Sprague-Dawley; Long-Evans gave essentially identical results), membranes
T2 sequence (P30543 whole entry): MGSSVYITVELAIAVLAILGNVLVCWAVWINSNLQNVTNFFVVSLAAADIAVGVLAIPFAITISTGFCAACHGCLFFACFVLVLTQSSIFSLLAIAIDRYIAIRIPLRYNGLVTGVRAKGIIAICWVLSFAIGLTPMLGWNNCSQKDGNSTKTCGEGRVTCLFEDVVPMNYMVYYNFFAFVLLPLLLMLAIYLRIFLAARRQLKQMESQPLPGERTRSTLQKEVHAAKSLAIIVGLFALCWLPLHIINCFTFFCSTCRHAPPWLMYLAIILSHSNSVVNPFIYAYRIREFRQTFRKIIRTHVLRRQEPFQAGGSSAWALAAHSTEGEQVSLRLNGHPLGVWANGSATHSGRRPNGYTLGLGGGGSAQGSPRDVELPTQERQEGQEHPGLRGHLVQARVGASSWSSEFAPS
The experiment in a line: Adenosine Receptor Binding--A2 Receptor Affinity (RBA2), [3H]NECA binding, rat striatal membranes. Further details: species or system rat (mixed sex Sprague-Dawley; male Long-Evans). As to conditions: 4 nM [3H]NECA, 50 nM N6-cyclopentyladenosine, 25° C., 60 min. The method, then:
Adenosine Receptor Binding--A2 Receptor Affinity (RBA2)
Brains from 200-500 g mixed sex Sprague-Dawley rats were purchased from Pel-Freez (Rogers, Ark.). […] Brains were thawed and then kept on ice while the striata were dissected out. Striata were disrupted in 10 vol of ice-cold 50 mM Tris.HCl (pH 7.7 at 25° C., pH 8.26 at 5° C.) (Tris) for 30 seconds in a Polytron PT-10 (Brinkmann) at setting 5. The suspension was centrifuged at 50,000 xg for ten minutes, the supernatant discarded, the pellet resuspended in 10 vol ice-cold Tris as above, recentrifuged, resuspended at 1 g/5 ml, and stored in plastic vials at -70° C. […] When needed, tissue was thawed at room temperature, disrupted in a Polytron, and kept on ice until used.
Test compounds were dissolved at 10 mM in dimethylsulfoxide on the same day as the experiment, and diluted in dimethylsulfoxide to 100× the final incubation concentration. […] [^3 H]NECA was diluted to 40 nM in Tris. […] After all additions, the rack of tubes was vortexed, and the tubes were then incubated for 60 min at 25° C. in a shaking water bath. The rack of tubes was vortexed an additional time halfway through the incubation.
Incubations were terminated by filtration through 2.4 cm GF/B filters under reduced pressure. Each tube was filtered as follows: the contents of the tube were poured onto the filter, 4 ml of ice-cold Tris were added to the tube and the contents poured onto the filter, and the filter was washed twice with 4 ml of ice-cold Tris. The filtration was complete in about twelve seconds. Filters were put in scintillation vials, 8 ml of Formula 947 scintillation fluid added, and the vials left overnight, shaken, and counted in a liquid scintillation counter at 40% efficiency.
The IC50 was calculated by weighted nonlinear least squares curve-fitting to the mass-action equation. [formula] where Y is cpm bound
T is cpm total binding without drug
S is cpm specific binding without drug
D is the concentration of drug
K is the IC50 of the drug
Weighting factors were calculated under the assumption that the standard deviation was proportional to the predicted value of Y. Nonspecific binding was treated as a very large (infinite) concentration of drug in the computer analysis.

The nature of experiment [1]: Mouse Activity and Screen Test (MAST), screen test failure (ST). Format: in vivo, mouse (Swiss-Webster, male). As to conditions: for Inhibition of screen test failure: percent of mice falling off the screen; for minimal effective dose: Mus musculus, ip, read-out: MAST ST LAD. The method, then:
Treatments are administered intraperitoneally one hour prior to testing. […] Compounds are dissolved or suspended in 0.2% Methocel. Control animals are injected with Methocel.
The compounds are identified in the Examples.

[2] abbreviates: lowest dose at which an A rating is achieved, screen test, intraperitoneal, 1 h prior to testing.

Where two headings read alike, the source gives them in different places.

`OC[C@H]1O[C@@H](n2cnc3c(NCC(c4ccccc4)c4ccccc4)nc(Cl)nc32)[C@H](O)[C@@H]1O` [Example 3, N^6-(2,2-Diphenylethyl)-2-chloroadenosine]: the IC50 at adenosine A1 receptor is 67 nM; at adenosine A2 receptor, 139 nM. Besides, the “Inhibition of screen test failure” value amounted to 0% in experiment [1] (10 mg/kg intraperitoneal), 11% in experiment [1] (30 mg/kg intraperitoneal) and 44% in experiment [1] (100 mg/kg intraperitoneal). Besides, the minimal effective dose in experiment [1] (setting [2]) is greater than 100 mg/kg.
Turning to `Nc1nc(NCC(c2ccccc2)c2ccccc2)c2ncn([C@@H]3O[C@H](CO)[C@@H](O)[C@H]3O)c2n1` [Example 4, N^6-(2,2-Diphenylethyl)-2-aminoadenosine], the IC50 at adenosine A1 receptor worked out at 89 nM; on adenosine A2 receptor, 275 nM. In addition, the “Inhibition of screen test failure” value in experiment [1] (10 mg/kg intraperitoneal) is 0%; in experiment [1] (30 mg/kg intraperitoneal) it was 11%; in experiment [1] (100 mg/kg intraperitoneal), 22%. In experiment [1] (setting [2]), the minimal effective dose is greater than 100 mg/kg.
As for `OC[C@H]1O[C@@H](n2cnc3c(NC(c4ccccc4)c4ccccc4)ncnc32)[C@H](O)[C@@H]1O` [Example 5, N^6 -Diphenylmethyladenosine], the IC50 is 846 nM on adenosine A1 receptor and 5650 nM at adenosine A2 receptor. For the same compound, the minimal effective dose in experiment [1] (setting [2]) is greater than 100 mg/kg.
In the case of `OC[C@H]1O[C@@H](n2cnc3c(NCCCC(c4ccccc4)c4ccccc4)ncnc32)[C@H](O)[C@@H]1O` [Example 6, N^6-(4,4-Diphenylbutyl)adenosine], the IC50 at adenosine A1 receptor was determined as 518 nM; on adenosine A2 receptor, 9520 nM. Further, in experiment [1] (setting [2]), the minimal effective dose was greater than 100 mg/kg.
Turning to `OC[C@H]1O[C@@H](n2cnc3c(NCCCCC(c4ccccc4)c4ccccc4)ncnc32)[C@H](O)[C@@H]1O` [Example 7, N^6-(5,5-Diphenylpentyl)adenosine], the IC50 on adenosine A1 receptor is 147 nM; on adenosine A2 receptor it was 3290 nM. Further, the minimal effective dose in experiment [1] (setting [2]) is greater than 100 mg/kg.
As to `CC(CNc1ncnc2c1ncn2[C@@H]1O[C@H](CO)[C@@H](O)[C@H]1O)(c1ccccc1)c1ccccc1` [Example 8, N^6-(2,2-Diphenylpropyl)adenosine], the IC50 on adenosine A1 receptor is 66 nM; at adenosine A2 receptor, 41 nM. Also, the minimal effective dose in experiment [1] (setting [2]) was greater than 100 mg/kg.
As to `Cc1cccc(C(CNc2ncnc3c2ncn3[C@@H]2O[C@H](CO)[C@@H](O)[C@H]2O)c2ccccc2)c1` (stereo partly drawn) [Example 9, N^6-(2-(3-Methylphenyl)-2-phenylethyl)adenosine], the IC50 turned out to be 13 nM at adenosine A1 receptor and 17 nM on adenosine A2 receptor. Further, in experiment [1] (setting [2]), the minimal effective dose came out at 100 mg/kg.
Regarding `OC[C@H]1O[C@@H](n2cnc3c(NCC(c4ccccc4)c4ccc(F)cc4)ncnc32)[C@H](O)[C@@H]1O` (stereo partly drawn) [Example 10, N^6-(2-(4-Fluorophenyl)-2-phenylethyl)adenosine], the results for the IC50 on adenosine A1 receptor and at adenosine A2 receptor were 14 nM and 71 nM, respectively. Also, the minimal effective dose in experiment [1] (setting [2]) was greater than 100 mg/kg.
For `OC[C@H]1O[C@@H](n2cnc3c(NCC(c4ccccc4)c4ccc(F)cc4)nc(Cl)nc32)[C@H](O)[C@@H]1O` (stereo partly drawn) [Example 11, N^6-(2-(4-Fluorophenyl)-2-phenylethyl)-2-chloroadenosine] the same measures were 69 nM, 210 nM and greater than 100 mg/kg.
As to `Nc1nc(NCC(c2ccccc2)c2ccc(F)cc2)c2ncn([C@@H]3O[C@H](CO)[C@@H](O)[C@H]3O)c2n1` (stereo partly drawn) [Example 12, N^6-(2-(4-Fluorophenyl)-2-phenylethyl)-2-amino adenosine], the IC50 on adenosine A1 receptor amounted to 94 nM; at adenosine A2 receptor, 303 nM. For the same compound, the minimal effective dose in experiment [1] (setting [2]) is greater than 100 mg/kg.
For the compound `OC[C@H]1O[C@@H](n2cnc3c(NCC(c4ccc(F)cc4)c4ccc(F)cc4)ncnc32)[C@H](O)[C@@H]1O` [Example 13, N^6-(2,2-Di-(4-fluorophenyl)ethyl)adenosine], the IC50 on adenosine A1 receptor was 16 nM; on adenosine A2 receptor, 94 nM. For the same compound, in experiment [1] (setting [2]), the minimal effective dose is greater than 100 mg/kg.
Regarding `OC[C@H]1O[C@@H](n2cnc3c(NCC(c4ccccc4)c4cccc(Cl)c4)ncnc32)[C@H](O)[C@@H]1O` (stereo partly drawn) [Example 14, N^6-(2-(3-Chlorophenyl)-2-phenylethyl)adenosine], in experiment [1] (setting [2]), the minimal effective dose was greater than 100 mg/kg.
Regarding `OC[C@H]1O[C@@H](n2cnc3c(NCC(c4ccccc4)c4ccc(Cl)cc4)ncnc32)[C@H](O)[C@@H]1O` (stereo partly drawn) [Example 15, N^6-(2-(4-Chlorophenyl)-2-phenylethyl)adenosine], the IC50 at adenosine A1 receptor is 27 nM; at adenosine A2 receptor it was 90 nM. In experiment [1] (setting [2]), the minimal effective dose is greater than 100 mg/kg.
On to `Nc1nc(NCC(c2ccccc2)c2ccc(Cl)cc2)c2ncn([C@@H]3O[C@H](CO)[C@@H](O)[C@H]3O)c2n1` (stereo partly drawn) [Example 16], for which the IC50 at adenosine A1 receptor was 223 nM; at adenosine A2 receptor, 319 nM. The minimal effective dose in experiment [1] (setting [2]) was greater than 100 mg/kg.
`OC[C@H]1O[C@@H](n2cnc3c(NCC(c4ccc(Cl)cc4)c4ccc(Cl)cc4)ncnc32)[C@H](O)[C@@H]1O` [Example 17, N^6-(2,2-Di(4-chlorophenyl)ethyl)adenosine]: the IC50 at adenosine A1 receptor was 512 nM; at adenosine A2 receptor, 713 nM. Further, the minimal effective dose in experiment [1] (setting [2]) was greater than 100 mg/kg.
Regarding `Nc1nc(NCC(c2ccc(Cl)cc2)c2ccc(Cl)cc2)c2ncn([C@@H]3O[C@H](CO)[C@@H](O)[C@H]3O)c2n1` [Example 18], the values for the IC50 at adenosine A1 receptor and at adenosine A2 receptor were 1920 nM and 2120 nM, respectively.
For `COc1ccc(C(CNc2ncnc3c2ncn3[C@@H]2O[C@H](CO)[C@@H](O)[C@H]2O)c2ccccc2)cc1` (stereo partly drawn) [Example 19, N^6-(2-(4-Methoxyphenyl)-2-phenylethyl)adenosine], the IC50 at adenosine A1 receptor came out at 21 nM; at adenosine A2 receptor it was 56 nM. The minimal effective dose in experiment [1] (setting [2]) was determined as 30 mg/kg.
With `O=[N+]([O-])c1ccc(C(CNc2ncnc3c2ncn3[C@@H]2O[C@H](CO)[C@@H](O)[C@H]2O)c2ccc([N+](=O)[O-])cc2)cc1` [Example 20], in experiment [1] (1 h), the minimal effective dose was greater than 100 mg/kg.
For the compound `O=P(O)(O)OC[C@H]1O[C@@H](n2cnc3c(NCC(c4ccccc4)c4ccccc4)ncnc32)[C@H](O)[C@@H]1O` [Example 28, N^6-(2,2-Diphenylethyl)adenosine-5'-phosphate], at adenosine A2 receptor, the IC50 is roughly 20 nM. The minimal effective dose in experiment [1] (setting [2]) was greater than 30 mg/kg.

Usually IC50 stands for the concentration that gives 50% inhibition. Lower therefore signals greater potency.

These data come from patent US4657897A, “N^6 -substituted adenosines for treating pain” (Warner-Lambert Company, priority 1985, dated 1987).
